# Source: patent US9937220B2, “Anti-diabetic nutraceutical composition from palm leaf extract” (priority 2009, dated 2018)
# System: STZ-induced diabetic rats
# Experiment: Body weight of STZ-induced diabetic rats
# Type: in vivo, rat
# Settings: glibenclamide treated group (30 mg/kg)
# Protocol: Adult normal and streptozotocin-induced diabetic male Sprague Dawley rats were randomly divided into groups. Palm leaf aqueous and alcoholic extracts (PLE) were fed to normal and STZ-induced diabetic rats at 50-200 mg/kg for 8 weeks. Blood sugar levels from fasting rats were monitored weekly. Untreated rats were used as negative control and glibenclamide (30 mg/kg) treated rats used as positive control.
structure (smiles),measurement,value
COc1ccc(Cl)cc1C(=O)NCCc1ccc(S(=O)(=O)NC(=O)NC2CCCCC2)cc1 [glibenclamide],changes in body weight,Significant changes in body weight
